Laboratory results taken from patent US20150307520A1, “NOVEL HETEROARYL AND HETEROCYCLE COMPOUNDS, COMPOSITIONS AND METHODS THEREOF” (HUTCHISON MEDIPHARMA LIMITED, priority 2012, published 2015).

What was measured:
Format in all cases: biochemical
p110β/p85α = p110β/p85α (Homo sapiens, UniProt P42338); assay: Transcreener KINASE Assay, kinase inhibition of p110β/p85α; details: for PI3Kβ IH % @ 1 uM: 1 uM test compound; for IC50: read-out: PI3Kβ IC50
Method in brief: (§1)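 ADP production was read by fluorescence polarization immunoassay (60 min detection step) after an 80 min room-temperature reaction of p110/p85α enzyme, compound in 2% DMSO, and PIP2/ATP solution (30 uM/10 uM as added) in HEPES buffer with MgCl2 and DTT. IC50s came from inhibition versus the DMSO control.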

p110δ/p85α = p110δ/p85α (Homo sapiens, UniProt O00329); assay: Transcreener KINASE Assay, kinase inhibition of p110δ/p85α; details: for PI3Kδ IH % @ 1 uM: 1 uM test compound; for IC50: read-out: PI3Kδ IC50
Method in brief: as §1

p110γ = p110γ (Homo sapiens, UniProt P48736); assay: Transcreener KINASE Assay, kinase inhibition of p110γ; details: for PI3Kγ IH % @ 1 uM: 1 uM test compound; for IC50: read-out: PI3Kγ IC50
Method in brief: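 Steps: enzyme reaction with compound, 80 min at room temperature; add ADP detection reagent, incubate 60 min at room temperature; read fluorescence polarization. Inhibition and IC50 values are derived from the ADP signal.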

p110δ/p85α, sequence (O00329 whole entry): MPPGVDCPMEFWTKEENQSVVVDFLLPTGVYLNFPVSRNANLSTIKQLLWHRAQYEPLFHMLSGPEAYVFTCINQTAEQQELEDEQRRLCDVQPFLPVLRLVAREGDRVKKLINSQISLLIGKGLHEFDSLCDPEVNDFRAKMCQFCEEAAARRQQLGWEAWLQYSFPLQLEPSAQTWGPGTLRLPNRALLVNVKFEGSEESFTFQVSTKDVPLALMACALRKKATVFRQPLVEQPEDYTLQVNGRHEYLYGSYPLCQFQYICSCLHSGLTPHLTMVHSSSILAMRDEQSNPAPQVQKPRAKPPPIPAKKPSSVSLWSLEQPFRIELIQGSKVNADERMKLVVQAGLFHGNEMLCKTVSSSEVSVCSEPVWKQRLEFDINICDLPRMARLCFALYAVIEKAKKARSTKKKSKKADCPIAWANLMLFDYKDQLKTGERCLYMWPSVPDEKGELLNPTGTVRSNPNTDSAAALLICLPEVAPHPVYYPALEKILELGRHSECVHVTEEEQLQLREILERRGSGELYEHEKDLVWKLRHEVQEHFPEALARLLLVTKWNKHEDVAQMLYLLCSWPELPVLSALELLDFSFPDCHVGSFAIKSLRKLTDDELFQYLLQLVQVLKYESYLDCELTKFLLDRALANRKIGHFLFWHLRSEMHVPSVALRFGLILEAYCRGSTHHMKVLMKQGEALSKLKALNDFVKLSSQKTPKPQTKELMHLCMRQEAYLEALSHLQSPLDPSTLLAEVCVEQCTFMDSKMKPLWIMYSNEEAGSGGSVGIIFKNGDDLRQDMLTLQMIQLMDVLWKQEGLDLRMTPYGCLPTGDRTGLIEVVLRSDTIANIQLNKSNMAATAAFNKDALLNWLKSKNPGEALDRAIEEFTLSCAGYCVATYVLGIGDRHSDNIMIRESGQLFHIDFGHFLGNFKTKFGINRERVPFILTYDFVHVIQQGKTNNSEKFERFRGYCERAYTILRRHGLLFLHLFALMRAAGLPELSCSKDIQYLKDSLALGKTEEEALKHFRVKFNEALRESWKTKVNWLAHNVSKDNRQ
p110δ/p85α, sequence (P27986 whole entry partner): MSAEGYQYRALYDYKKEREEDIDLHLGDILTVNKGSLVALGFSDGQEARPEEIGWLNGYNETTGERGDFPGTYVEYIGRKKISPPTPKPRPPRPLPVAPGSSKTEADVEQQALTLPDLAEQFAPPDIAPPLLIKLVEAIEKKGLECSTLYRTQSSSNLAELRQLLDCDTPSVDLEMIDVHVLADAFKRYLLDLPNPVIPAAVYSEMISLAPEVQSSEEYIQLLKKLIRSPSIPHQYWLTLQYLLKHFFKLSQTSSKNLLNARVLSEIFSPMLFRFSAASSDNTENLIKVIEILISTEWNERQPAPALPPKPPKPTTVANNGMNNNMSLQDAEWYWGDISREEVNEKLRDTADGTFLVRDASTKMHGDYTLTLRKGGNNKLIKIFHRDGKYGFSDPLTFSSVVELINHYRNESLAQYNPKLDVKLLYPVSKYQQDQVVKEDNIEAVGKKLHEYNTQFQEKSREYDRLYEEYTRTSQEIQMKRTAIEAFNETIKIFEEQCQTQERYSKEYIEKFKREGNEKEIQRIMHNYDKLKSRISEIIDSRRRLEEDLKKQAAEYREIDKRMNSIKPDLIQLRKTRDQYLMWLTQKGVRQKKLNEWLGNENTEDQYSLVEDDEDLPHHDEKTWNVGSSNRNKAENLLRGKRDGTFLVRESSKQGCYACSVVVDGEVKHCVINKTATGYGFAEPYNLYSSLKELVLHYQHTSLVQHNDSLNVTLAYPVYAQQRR
p110γ, sequence (P48736 whole entry): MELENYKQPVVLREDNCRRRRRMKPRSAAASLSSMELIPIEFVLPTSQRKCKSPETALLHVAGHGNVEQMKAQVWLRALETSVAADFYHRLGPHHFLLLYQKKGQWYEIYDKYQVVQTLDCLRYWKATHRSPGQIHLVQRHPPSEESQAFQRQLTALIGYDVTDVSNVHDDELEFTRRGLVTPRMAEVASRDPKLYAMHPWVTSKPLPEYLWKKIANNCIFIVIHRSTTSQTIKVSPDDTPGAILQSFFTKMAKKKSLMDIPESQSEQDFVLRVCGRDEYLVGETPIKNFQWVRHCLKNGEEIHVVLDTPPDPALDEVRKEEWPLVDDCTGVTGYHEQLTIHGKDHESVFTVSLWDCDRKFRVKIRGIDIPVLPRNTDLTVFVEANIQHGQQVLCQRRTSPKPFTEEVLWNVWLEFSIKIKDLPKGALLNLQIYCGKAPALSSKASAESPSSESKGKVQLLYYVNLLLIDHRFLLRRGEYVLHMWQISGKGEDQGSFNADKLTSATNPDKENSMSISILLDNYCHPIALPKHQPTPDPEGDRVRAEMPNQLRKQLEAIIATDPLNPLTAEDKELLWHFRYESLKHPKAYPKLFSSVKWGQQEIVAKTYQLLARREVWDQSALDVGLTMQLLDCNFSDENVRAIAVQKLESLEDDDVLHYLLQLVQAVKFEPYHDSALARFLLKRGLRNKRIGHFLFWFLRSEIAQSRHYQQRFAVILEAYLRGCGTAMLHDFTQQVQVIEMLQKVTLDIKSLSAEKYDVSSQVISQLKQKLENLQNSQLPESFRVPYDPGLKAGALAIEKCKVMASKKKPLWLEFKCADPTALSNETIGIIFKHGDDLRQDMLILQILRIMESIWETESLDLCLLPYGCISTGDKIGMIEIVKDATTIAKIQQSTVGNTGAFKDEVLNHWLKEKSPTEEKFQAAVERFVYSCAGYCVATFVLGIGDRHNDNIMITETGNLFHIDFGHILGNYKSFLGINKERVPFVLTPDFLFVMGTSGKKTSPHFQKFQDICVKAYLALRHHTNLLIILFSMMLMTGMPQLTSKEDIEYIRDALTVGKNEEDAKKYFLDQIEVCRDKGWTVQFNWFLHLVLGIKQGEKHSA
p110β/p85α, sequence (P42338 whole entry): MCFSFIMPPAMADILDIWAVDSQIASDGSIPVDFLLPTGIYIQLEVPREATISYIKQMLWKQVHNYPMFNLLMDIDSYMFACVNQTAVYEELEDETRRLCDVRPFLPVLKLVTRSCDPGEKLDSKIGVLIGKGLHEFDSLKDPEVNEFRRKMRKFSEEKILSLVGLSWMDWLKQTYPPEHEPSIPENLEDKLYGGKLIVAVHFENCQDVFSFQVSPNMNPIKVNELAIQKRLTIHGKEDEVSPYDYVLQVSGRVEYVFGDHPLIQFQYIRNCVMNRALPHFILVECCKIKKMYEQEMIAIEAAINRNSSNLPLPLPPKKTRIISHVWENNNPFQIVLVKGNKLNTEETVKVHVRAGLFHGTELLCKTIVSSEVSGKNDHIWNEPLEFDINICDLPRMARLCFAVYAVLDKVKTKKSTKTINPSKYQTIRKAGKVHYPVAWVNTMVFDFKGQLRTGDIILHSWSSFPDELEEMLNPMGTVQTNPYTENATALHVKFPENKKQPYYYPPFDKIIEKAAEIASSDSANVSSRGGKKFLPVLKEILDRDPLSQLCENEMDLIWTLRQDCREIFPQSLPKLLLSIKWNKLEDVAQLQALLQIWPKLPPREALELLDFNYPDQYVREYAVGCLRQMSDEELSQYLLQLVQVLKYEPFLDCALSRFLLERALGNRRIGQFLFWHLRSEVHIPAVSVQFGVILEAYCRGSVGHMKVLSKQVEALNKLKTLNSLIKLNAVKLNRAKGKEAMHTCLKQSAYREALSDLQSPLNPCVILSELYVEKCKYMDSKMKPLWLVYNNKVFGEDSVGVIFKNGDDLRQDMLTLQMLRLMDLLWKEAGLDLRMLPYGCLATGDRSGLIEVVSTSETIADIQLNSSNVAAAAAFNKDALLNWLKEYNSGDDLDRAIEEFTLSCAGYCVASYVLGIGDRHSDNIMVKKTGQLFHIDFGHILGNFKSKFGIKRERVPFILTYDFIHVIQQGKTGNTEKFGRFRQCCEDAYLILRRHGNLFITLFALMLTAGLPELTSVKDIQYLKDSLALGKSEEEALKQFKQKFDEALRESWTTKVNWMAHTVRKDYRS
p110β/p85α, sequence (P27986 2-724 partner): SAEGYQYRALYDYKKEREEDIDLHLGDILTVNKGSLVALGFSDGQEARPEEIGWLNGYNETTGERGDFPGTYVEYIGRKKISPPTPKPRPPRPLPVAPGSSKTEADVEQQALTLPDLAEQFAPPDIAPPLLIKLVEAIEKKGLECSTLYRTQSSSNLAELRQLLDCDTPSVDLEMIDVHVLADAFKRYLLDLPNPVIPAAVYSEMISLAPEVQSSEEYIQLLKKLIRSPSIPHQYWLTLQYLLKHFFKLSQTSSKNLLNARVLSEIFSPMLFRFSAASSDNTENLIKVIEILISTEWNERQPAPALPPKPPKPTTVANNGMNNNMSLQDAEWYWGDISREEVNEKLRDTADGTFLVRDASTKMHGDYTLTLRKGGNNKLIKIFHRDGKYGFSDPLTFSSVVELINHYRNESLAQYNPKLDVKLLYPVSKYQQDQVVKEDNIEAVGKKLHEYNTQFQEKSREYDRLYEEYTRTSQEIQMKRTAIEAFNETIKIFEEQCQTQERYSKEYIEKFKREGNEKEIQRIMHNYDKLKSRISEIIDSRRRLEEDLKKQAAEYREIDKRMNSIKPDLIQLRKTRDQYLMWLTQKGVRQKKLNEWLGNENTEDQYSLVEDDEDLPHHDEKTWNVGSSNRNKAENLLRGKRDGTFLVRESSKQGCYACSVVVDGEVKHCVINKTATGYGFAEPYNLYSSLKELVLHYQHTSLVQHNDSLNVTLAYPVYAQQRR

SMILES	PI3Kβ IH % @ 1 uM (p110β/p85α) [%]	IC50 (p110β/p85α) [µM]	PI3Kδ IH % @ 1 uM (p110δ/p85α) [%]	IC50 (p110δ/p85α) [µM]	PI3Kγ IH % @ 1 uM (p110γ) [%]	IC50 (p110γ) [µM]
Cn1c([C@@H]2CCCN2c2ncnc3[nH]cc(C#N)c23)nn2ccc(Cl)c2c1=O [Compound 63]	93.7	0.061	97.7		>100	0.081
COc1ncc(-c2n[nH]c3ncnc(N4CCC[C@H]4c4nn5ccc(Cl)c5c(=O)n4-c4ccccc4)c23)cn1 [Compound 168]	98.8		>100		95.1	
O=c1c2c(Cl)ccn2nc([C@@H]2CCCCN2c2ncnc3[nH]cnc23)n1-c1ccccc1 [Compound 203]	23.3		94.6	0.1	65.3	
N#Cc1c[nH]c2ncnc(N3CC[C@H]3c3nn4ccc(Cl)c4c(=O)n3Cc3cccnc3)c12 [Compound 61]	7.9		73.9	0.309	45.1	
CC(Nc1ncnc(N)c1C#N)c1cn2ccc(Cl)c2c(=O)n1-c1ccccc1 (stereo not shown) [Compound 89]	96.1	0.017	>100		94.8	
CC(Nc1ncnc2[nH]cc(C#N)c12)c1cc2ccc(Cl)n2c(=O)n1-c1ccccc1 (stereo not shown) [Compound 124]	95.0	0.022	98.0	0.002	>100	0.012
N#Cc1cnc(N)nc1N1CCC[C@H]1c1nn2ccc(Cl)c2c(=O)n1-c1ccc(F)cc1 [Compound 231]	80.5	0.197	98.1	0.009	96.8	0.004
CO[C@@H]1C[C@@H](c2nn3ccc(Cl)c3c(=O)n2-c2ccccc2)N(c2ncnc3[nH]cnc23)C1 [Compound 72, 5-chloro-2-((2S,4R)-4-methoxy-1-(9H-purin-6-yl)pyrrolidin-2-yl)-3-phenylpyrrolo[2,1-f][1,2,4]triazin-4(3H)-one]	13.5		91.6	0.088	49.5	
CS(=O)(=O)c1cccc(-n2c([C@@H]3CCCN3c3ncnc4[nH]cnc34)nn3ccc(Cl)c3c2=O)c1 [Compound 193]	31.5		>100	0.023	93.7	0.121
Nc1nc(N2CCC[C@H]2c2nn3ccc(Cl)c3c(=O)n2-c2ccccc2)n2nccc2n1 [Compound 134, (S)-2-(1-(2-aminopyrazolo[1,5-a][1,3,5]triazin-4-yl)pyrrolidin-2-yl)-5-chloro-3-phenylpyrrolo[2,1-f][1,2,4]triazin-4(3H)-one]	59.2		>100	0.005	>100	0.03
C[S+]([O-])c1c[nH]c2ncnc(N3CC[C@H]3c3nn4ccc(Cl)c4c(=O)n3-c3ccccc3)c12 (stereo partly shown) [Compound 196]	32.3		97.1	0.069	>100	0.065
COc1ccc(-c2c[nH]c3ncnc(N4CC[C@H]4c4nn5ccc(F)c5c(=O)n4-c4ccccc4)c23)cn1 [Compound 182]	93.3	0.062	>100		94.9	0.007
C[S+]([O-])c1c[nH]c2ncnc(N3CCC[C@H]3c3nn4ccc(F)c4c(=O)n3-c3ccccc3)c12 (stereo partly shown) [Compound 219]	75.1	0.358	98.4	0.003	87.4	0.014
O=c1c2c(Cl)ccn2nc([C@@H]2CCCN2c2ncnc3[nH]ccc23)n1-c1ccccc1 [Compound 145]	55.5		>100	0.002	>100	0.009
N#Cc1c[nH]c2ncnc(N3CC[C@H]3c3nn4ccc(Br)c4c(=O)n3-c3ccccc3)c12 [Compound 55]	23.8		97.6	0.008	99.5	0.067

The remaining lines, values ahead:

PI3Kβ IH % @ 1 uM (p110β/p85α) [%]	IC50 (p110β/p85α) [µM]	PI3Kδ IH % @ 1 uM (p110δ/p85α) [%]	IC50 (p110δ/p85α) [µM]	PI3Kγ IH % @ 1 uM (p110γ) [%]	IC50 (p110γ) [µM]	SMILES
52.0	2.35	>100	0.011	96.5	0.013	C[S@@+]([O-])c1c[nH]c2ncnc(N3CCC[C@H]3c3nn4ccc(F)c4c(=O)n3-c3ccccc3)c12 [Compound 397, 5-fluoro-2-((S)-1-(5-((R)-methylsulfinyl)-7H-pyrrolo[2,3-d]pyrimidin-4-yl)pyrrolidin-2-yl)-3-phenylpyrrolo[2,1-f][1,2,4]triazin-4(3H)-one]
67.2		95.9	0.011	89.1	0.062	C[S@+]([O-])c1c[nH]c2ncnc(N3C[C@@H](F)C[C@H]3c3nn4ccc(Cl)c4c(=O)n3-c3cccc(F)c3)c12 [Compound 392, 5-chloro-2-((2S,4S)-4-fluoro-1-(5-((S)-methylsulfinyl)-7H-pyrrolo[2,3-d]pyrimidin-4-yl)pyrrolidin-2-yl)-3-(3-fluorophenyl)pyrrolo[2,1-f][1,2,4]triazin-4(3H)-one]
95.8	0.022	99.5	0.0004	>100	0.004	CC(=O)c1cnc(N)nc1N[C@@H](C)c1cc2ncc(Cl)n2c(=O)n1-c1ccccc1 [Compound 447, (S)-7-(1-((5-acetyl-2-aminopyrimidin-4-yl)amino)ethyl)-3-chloro-6-phenylimidazo[1,2-c]pyrimidin-5(6H)-one]
48.3		99.3	0.007	98.2	0.009	CC(=O)c1cnc(N)nc1N1CCC1c1nn2ccc(Cl)c2c(=O)n1-c1ccccn1 (stereo not shown) [Compound 474]
38.1		94.7	0.147	>100	0.093	CC(Nc1ncnc2[nH]cc(S(C)(=O)=O)c12)c1cn2ccc(Cl)c2c(=O)n1-c1ccccc1 (stereo not shown) [Compound 269]
78.1	0.079	95.9	0.001	89.5	0.024	C[C@H]1CN(c2ncnc3[nH]cc(C#N)c23)[C@@H]1c1nn2ccc(Cl)c2c(=O)n1-c1ccccn1 [Compound 476]
87.4	0.174	>100	0.012	89.7	0.022	CC(Nc1ncnc2[nH]cc(F)c12)c1cn2ccc(Cl)c2c(=O)n1-c1ccccc1 (stereo not shown) [Compound 270]
63.4		>100	0.006	>100	0.014	N#Cc1cnc(N)nc1N1CCC[C@H]1c1nn2ccc(Cl)c2c(=O)n1-c1cccc(F)c1 [Compound 232]
57.8		96.5	0.077	98.6	0.008	CC(=O)c1cnc(N)nc1N1CC[C@H]1c1nn2ccc(Cl)c2c(=O)n1-c1ccc(F)cc1 [Compound 302]
68.6	0.3	>100	0.001	>100	0.011	O=c1c2c(Cl)ccn2nc([C@@H]2C[C@H](OCCO)CN2c2ncnc3[nH]cnc23)n1-c1ccccc1 [Compound 265]
20.0		97.1	0.023	93.7	0.067	CC(=O)c1c[nH]c2ncnc(N3CC[C@H]3c3nn4ccc(Cl)c4c(=O)n3-c3ccccn3)c12 [Compound 312]
88.8	0.018	97.1		93.4	0.011	O=c1c2c(Cl)ccn2nc([C@@H]2C[C@H](O)CN2c2ncnc3[nH]cnc23)n1-c1ccccc1 [Compound 262]
20.9		71.9	0.121	>100	0.147	Nc1nc(N2CCC[C@H]2c2nn3ccc(Cl)c3c(=O)n2-c2ccccc2)c2cccn2n1 [Compound 331]
58.7	0.517		0.004		0.155	O=c1c2c(Cl)ccn2nc([C@@H]2CCCN2c2ncnc3[nH]cnc23)n1C1CCC1 [Compound 374]
3.5		35.1		70.3		C[S+]([O-])c1cnc(N)nc1N1CC[C@H]1c1nn2ccc(Cl)c2c(=O)n1-c1ccccc1 (stereo partly shown) [Compound 399]
76.8	0.322	>100	0.003	95.0	0.021	C[S@+]([O-])c1c[nH]c2ncnc(N3CCC[C@H]3c3nn4ccc(Cl)c4c(=O)n3-c3cccc(F)c3)c12 (single isomer, unassigned) [Compound 386]
59.8		98.7	0.018	>100	0.075	Cc1nc(N2CCC[C@H]2c2nn3ccc(F)c3c(=O)n2-c2ccccc2)c2nc[nH]c2n1 [Compound 239]
